# Laboratory results from publication PMC6960228, “Ethoxysanguinarine, a Novel Direct Activator of AMP-Activated Protein Kinase, Induces Autophagy and Exhibits Therapeutic Potential in Breast Cancer Cells” (Frontiers in Pharmacology, 2020).
# Experiments:
# MCF-10A = assay: MTT cytotoxicity assay; format: cell-based, human
# Description: Human BC cell lines MCF-7, MDA-MB-231, DMA-MB-436, SK-BR3, MDA-MB-468, MDA-MB-453, and MDA-MB-435S and non-tumorigenic MCF-10A human mammary epithelial cells were obtained from American Type Culture Collection (ATCC; Manassas, VA, USA). MCF-7, SK-BR3, MDA-MB-231, and MDA-MB-436 cells were maintained in Dulbecco’s modified Eagle’s medium (DMEM; high glucose; Gibco; Thermo Fisher Scientific, Inc., Waltham, MA, USA) supplemented with 10% fetal bovine serum (FBS; HyClone; Logan, UT, USA) and antibiotics and incubated in a humidified atmosphere with 5% CO2 at 37°C. MDA-MB-468, MDA-MB-453, and MDA-MB-435S cells were maintained in Leibovitz’s L-15 (Gibco) supplemented with 10% FBS and antibiotics and incubated in a humidified atmosphere without CO2 at 37°C. MCF-10A cells were maintained in DMEM/F12 medium containing 5% horse serum (HS), insulin ([…]), epidermal growth factor (EGF, 20 ng/mL), choleratoxin ([…]), hydrocortisone ([…]), penicillin (50 U/mL), and streptomycin (50 U/mL), and incubated in a humidified atmosphere with CO2 at 37°C.
# Cells were seeded into 96-well plate and pre-cultured for 24 h, then treated with Eth for 24. Cell cytotoxicity was determined by MTT assay. […]
# T47D = assay: MTT cytotoxicity assay; format: cell-based; settings: Homo sapiens, 24 h, means ± SD of quadruplicate determinations
# Protocol: Cells were seeded into 96-well plate and pre-cultured for 24 h, then treated with Eth for 24. Cell cytotoxicity was determined by MTT assay. The absorbance was measured at 490 nm by automated microplated reader (BioTek Instruments, Inc., Winooski, VT, USA), and the cell death rate was calculated as followed: inhibition rate (%) = (average A490 of the control group − average A490 of the experimental group)/(average A490 of the control group − average A490 of the blank group) × 100%. Cell viability was estimated by trypan blue dye exclusion.
# [1] = system: AMPK/mTORC1 signaling in MCF-7, MDA-MB-231, and MDA-MB-436 cells; assay: Western blot of AMPK/mTORC1 signaling; format: cell-based, human; settings: western blot
# Protocol: Cells were lysed in radioimmunoprecipitation assay buffer containing 50 mM Tris, pH 8.0, 150 mM NaCl, 0.1% SDS, 0.5% sodium deoxycholate, 1% NP-40, 1 mM DTT, 1 mM NaF, 1 mM sodium orthovanadate, 1 mM phenylmethylsulfonyl fluoride (PMSF; Sigma-Aldrich; Merck KGaA), and 1% protease inhibitors cocktail (EMD Millipore, Billerica, MA, USA). Protein concentration was determined using the Bradford method. Equal amounts of sample (25 µg) were separated by SDS-PAGE (8–12% gels). Electrophoresed proteins were then transferred onto polyvinylidene fluoride membranes (EMD Millipore, Billerica, MA, USA). The membranes were blocked with 5% skimmed milk in Tris-buffered saline at room temperature for 1 h. Following blocking, membranes were incubated overnight at 4°C with primary antibodies and then rinsed with Tris-buffered saline with Tween 20. The following primary antibodies were used: anti-Glut3 (1:500; catalog no. sc-74399) (Santa Cruz Biotechnology, Inc., Dallas, TX, USA); anti-LC3 (1:1000; catalog no. 12741), anti-AMPKα (1:1000; catalog no. 2532), anti-phospho-AMPKα (Thr172) (1:1000; catalog no. 2535), anti-phospho-AMPKβ1 (Ser108) (1:1000; catalog no. 4181), anti-AMPKγ1 (1:1000; catalog no. 4187), anti-mTOR (1:1000; catalog no. 2983), anti-phospho-mTOR (Ser2448) (1:1000; catalog no. 5536), anti-P70S6K (1:1000; catalog no. 9202), anti-phospho-P70S6K (Thr389) (1:1000; catalog no. 92775), anti-4E-BP1 (1:1000; catalog no. 9234), anti-phospho-4E-BP1 (Thr37/46) (1:1000; catalog no. 2855), anti-ACC (1:1000; catalog no. 3676), anti-phospho-ACC ([…]) (1:1000; catalog no. 11818), anti-Glut1 (1:1000; catalog no. 12939), anti-Glut4 (1:1000; catalog no. 2213) (All Cell Signaling Technology, Inc., Danvers, MA, USA), and anti-GAPDH (1:5000; catalog no. M20006; Abmart, Shanghai, China). Membranes were then washed, and incubated with horseradish peroxidase-conjugated secondary antibody (1:10000; E030120-01 and E030110-01; EarthOx, LLC, San Francisco, CA, USA) for 1.5 h at room temperature. The protein bands were visualized using SuperSignal® West Pico PLUS Chemiluminescent substrate (catalog no. 34579; Pierce; Thermo Fisher Scientific, Inc., Rockford, IL, USA) ([Zhang et al., 2018]).
# Figure 3 Eth induces autophagy through the AMPK/mTORC1 signaling. (A): MCF-7, MDA-MB-231, or MDA-MB-436 cells were treated with increasing concentrations of Eth for 24 h. Western blot was performed using antibodies indicated. […] (D): MDA-MB-231 or MDA-MB-436 cells transfected with pQCXIP-GFP-LC3 plasmid were treated with Eth (2.0 µM) and/or CC (25 µM) for 24 h, and assessed by immunoﬂuorescence analyses. […] (G): MDA-MB-231 or MDA-MB-436 cells transfected with pQCXIP-GFP-LC3 plasmid were treated with Eth (1.0 µM or 1.6 µM) and/or Met (10 mM) for 24 h, and assessed by immunoﬂuorescence analyses. […]
# [2] = system: ACC, Glut1, Glut3, and Glut4 in BC cells; assay: Western blot of energy metabolism proteins; format: cell-based, human
# Protocol: Cells were lysed in radioimmunoprecipitation assay buffer containing 50 mM Tris, pH 8.0, 150 mM NaCl, 0.1% SDS, 0.5% sodium deoxycholate, 1% NP-40, 1 mM DTT, 1 mM NaF, 1 mM sodium orthovanadate, 1 mM phenylmethylsulfonyl fluoride (PMSF; Sigma-Aldrich; Merck KGaA), and 1% protease inhibitors cocktail (EMD Millipore, Billerica, MA, USA). Protein concentration was determined using the Bradford method. Equal amounts of sample (25 µg) were separated by SDS-PAGE (8–12% gels). Electrophoresed proteins were then transferred onto polyvinylidene fluoride membranes (EMD Millipore, Billerica, MA, USA). The membranes were blocked with 5% skimmed milk in Tris-buffered saline at room temperature for 1 h. Following blocking, membranes were incubated overnight at 4°C with primary antibodies and then rinsed with Tris-buffered saline with Tween 20. […]
compound,measurement,setting,value
"CCOC1c2c(ccc3c2OCO3)-c2ccc3cc4c(cc3c2N1C)OCO4 (stereo not shown) [Eth, Ethoxysanguinarine]",IC50,"MCF-10A; Homo sapiens, MCF-10A, 24 h, MTT assay, means ± SD of quadruplicate determinations",12.3 ± 2.05 µM
same,sensitivity to Eth compared with the BC cell lines,MCF-10A; normal human mammary epithelial cell line MCF-10A,less sensitive
same,IC50,T47D,9.15 ± 1.83 µM
same,"phosphorylation of mTORC1 effectors (mTOR, p70S6K, and 4EBP1)",[1],decreased the phosphorylation of mTORC1 effectors
same,phosphorylation of AMPKα at Thr172,[1]; dose- and time-dependent,increased
same,expression and activation of ACC,[2],no significant effect
same,"expression of Glut1, Glut3, and Glut4","[2]; MCF-7 or MDA-MB-231 cells, 24 h",downregulated
